“Also recorded” adds a separate entry of the source.

These results are taken from patent US20140093457A1, “Compositions, methods and kits for remineralization and inhibition of dental caries in teeth” (President and Fellows of Harvard College, priority 2010, published 2014).

Data set [1] in a line: Intensity and duration of fluorescence of probe dilutions bound to caries. The following applies: for fluorescent intensity compared to IR820 (ICG): dilutions 1:10 and 1:100 of 1 mg/mL stock, deep and shallow lesions. How it is done: Probes were tested for appropriate concentration, kinetics of binding and retention. Intensity of the illumination light, and the size of the illumination light beam were varied, and data were recorded for each probe. […] The concentration of each probe was varied to determine an optimum concentration for binding during a time period suitable for dental use. Durations of contacting were also tested, for example about 10 seconds, about 20 seconds, about 40 seconds, or about 60 seconds. Binding of the probes to the surface of a tooth having different occlusal cavity conditions were also determined, e.g., plaque, gingival, calculus.
See FIG. 10A and FIG. 10B, and FIG. 11A-FIG. 11D.

Data set [2] can be described thus: Detection probes on interproximal models of extracted human teeth. The following applies: for degree of detection: early stage caries lesion, optical observation; for emission wavelength (nm) / excitation/absorbance wavelength (nm): probe bound to interproximal enamel caries; for optical observation of early stage caries lesion with bound probe (photograph): tooth preparation illuminated and photographed. How it is done:
Interproximal models of extracted human teeth (molars and premolars) were fabricated using silicon impression materials. Interproximal enamel caries at about […] depth and at about 1.5 mm depth were prepared by using areas of interproximal contact regions. The dental preparations having synthetic caries were assessed by radiographic films (bitewings) and a microscope.
A cotton ball was saturated with the detection probe, and placed in contact with the region of the interproximal enamel caries. The bound probe was observed by illuminating over a varying set of different wavelengths of excitation light, followed by detecting light of fluorescent emissions. Furthermore, absorbance of the illuminating wavelengths was detected as appropriate for each probe.
Each tooth preparation having interproximal enamel caries and bound probe was illuminated and photographed.

A short description of data set [3]: RFU comparison of solutions to release OsteoSense 750 from HA.
Experimental: Variables included conditions of pH, temperature, and presence of 1% calcium chloride.
Three conditions were tested: incubation for 15 minutes at 37° C. after vortexing; adjusting pH to 6.5 at 23° C. after vortexing; and addition of 1% calcium chloride to each solution and incubation at room temperature after vortexing.
Setting [4] is: 1% solution with calcium chloride (1%), room temperature.
Where [5] appears, read: 1% solution, 15 minutes at 37° C.
[6] abbreviates: 1% solution, pH 6.5, room temperature.
Setting [7] is: 5% solution with calcium chloride (1%), room temperature.
[8] abbreviates: 5% solution, 15 minutes at 37° C.
[9] abbreviates: 5% solution, pH 6.5, room temperature.
Setting [10] is: 10% solution with calcium chloride (1%), room temperature.
Setting [11] is: 10% solution, 15 minutes at 37° C.
The mark [12] stands for this setting: 10% solution, pH 6.5, room temperature.
[13] abbreviates: 20% solution, 15 minutes at 37° C.
The mark [14] stands for this setting: 20% solution with calcium chloride (1%), room temperature.
[15] abbreviates: 20% solution, pH 6.5, room temperature.

Take `CC1(C)C(/C=C/C=C/C=C/C=C2\N(CCCCS(=O)(=O)[O-])c3ccc4ccccc4c3C2(C)C)=[N+](CCCCS(=O)(=O)[O-])c2ccc3ccccc3c21.[Na+]` [CardioGreen (ICG)]: in data set [1], the “fluorescent intensity compared to IR820 (ICG)” value is “greater fluorescent intensity at each concentration and lesion depth compared to IR820 (ICG)”. In data set [2], the degree of detection entry is recorded as “Good”, the “emission wavelength (nm)” value is given as 820-870 nm and the “excitation/absorbance wavelength (nm)” value is given as 750-800 nm.
For `O=P(O)(O)CP(=O)(O)O` [methylene phosphoric acid (MDP), methylene phosphoric acid], the “% released of total OsteoSense” value amounted to 1.45% in data set [3] (setting [4]); 2.49% in data set [3] (setting [5]); 3.59% in data set [3] (setting [6]); 23.89% in data set [3] (setting [7]); 34.33% in data set [3] (setting [8]); 35.61% in data set [3] (setting [9]). Moreover, the “% released of total OsteoSense” value in data set [3] (setting [10]) is on record as 34.23%; in data set [3] (setting [11]) it was 56.56%; in data set [3] (setting [12]), 59.77%; in data set [3] (setting [13]) it was −0.13%. The “% released of total reference value” in data set [3] (setting [4]) was determined as 1.54%; in data set [3] (setting [5]), 2.11%; in data set [3] (setting [6]), 2.50%; in data set [3] (setting [7]), 32.07%; in data set [3] (setting [8]), 30.09%; in data set [3] (setting [9]), 27.41%. The “% released of total reference value” worked out at 37.57% in data set [3] (setting [10]), 55.84% in data set [3] (setting [11]) and 41.32% in data set [3] (setting [12]). Further, the “Raw RFU value” turned out to be 0.54 RFU in data set [3] (setting [4]); 0.93 RFU in data set [3] (setting [5]); 1.35 RFU in data set [3] (setting [6]); 8.96 RFU in data set [3] (setting [7]); 12.88 RFU in data set [3] (setting [8]); 13.35 RFU in data set [3] (setting [9]). In addition, the “Raw RFU value” in data set [3] (setting [10]) is recorded as 12.83 RFU; in data set [3] (setting [11]), 21.21 RFU; in data set [3] (setting [12]), 22.41 RFU; in data set [3] (setting [13]), −0.05 RFU. Besides, in data set [3] (compared with the other agents), the “relative efficacy in removing OsteoSense 750 from HA” value is “remove more OsteoSense 750 from HA than sodium phosphate monobasic or sodium phosphate dibasic at each concentration; also recorded: generally most effective for removing OsteoSense 750”.
Take `C=Cc1c(C)c2cc3nc(c4c5[n-]c(cc6nc(cc1[n-]2)C(C)=C6CC)c(C)c5C(=O)[C@@H]4C(=O)OC)[C@@H](CCC(=O)OC/C=C(\C)CCC[C@H](C)CCC[C@H](C)CCCC(C)C)[C@@H]3C.[Mg+2]` [Chlorophyll A]: in data set [2], the degree of detection result is on record as “Good”, the “emission wavelength (nm)” value is given as 670-900 nm, the “excitation/absorbance wavelength (nm)” value stood at 614 nm and the “optical observation of early stage caries lesion with bound probe (photograph)” value is “Fluorescence of an early stage caries lesion was observed”.
As for `O=P([O-])(O)O.[Na+]` [sodium phosphate monobasic (M), sodium phosphate monobasic], the “% released of total OsteoSense” value in data set [3] (setting [4]) was 0.60%; in data set [3] (setting [5]), 3.10%; in data set [3] (setting [6]), 6.36%; in data set [3] (setting [7]), 5.34%; in data set [3] (setting [8]), 10.41%; in data set [3] (setting [9]), 23.87%. The “% released of total OsteoSense” value in data set [3] (setting [10]) came out at 10.27%; in data set [3] (setting [11]), 23.92%; in data set [3] (setting [12]), 32.44%; in data set [3] (setting [14]), 20.04%; in data set [3] (setting [13]), 27.67%; in data set [3] (setting [15]) it was 33.90%. Besides, the “% released of total reference value” in data set [3] (setting [4]) worked out at 2.51%; in data set [3] (setting [5]), 3.65%; in data set [3] (setting [6]), 9.73%; in data set [3] (setting [7]), 11.39%; in data set [3] (setting [8]), 13.11%; in data set [3] (setting [9]) it was 31.74%. In addition, the “% released of total reference value” is listed as 20.25% in data set [3] (setting [10]); 32.36% in data set [3] (setting [11]); 45.17% in data set [3] (setting [12]); 39.19% in data set [3] (setting [14]); 50.11% in data set [3] (setting [13]); 51.43% in data set [3] (setting [15]). The “Raw RFU value” is reported as 0.22 RFU in data set [3] (setting [4]); 1.16 RFU in data set [3] (setting [5]); 2.38 RFU in data set [3] (setting [6]); 2.00 RFU in data set [3] (setting [7]); 3.90 RFU in data set [3] (setting [8]); 8.95 RFU in data set [3] (setting [9]). For the same compound, the “Raw RFU value” in data set [3] (setting [10]) worked out at 3.85 RFU; in data set [3] (setting [11]), 8.97 RFU; in data set [3] (setting [12]), 12.16 RFU; in data set [3] (setting [14]) it was 7.51 RFU; in data set [3] (setting [13]), 10.37 RFU; in data set [3] (setting [15]), 12.71 RFU.
For `CC1(C)C(/C=C/C=C/C=C/C=C2\N(CCCCS(=O)(=O)O)c3ccc4ccccc4c3C2(C)C)=[N+](CCCCS(=O)(=O)[O-])c2ccc3ccccc3c21` [Indocyanine Green], in data set [2], the degree of detection entry was “Weak”, the “emission wavelength (nm)” value was 835 nm and the “excitation/absorbance wavelength (nm)” value was found to be 800 nm.
In the case of cyanine dye 7 [Cy7], the “retained fluorescence intensity compared to CardioGreen (ICG) diluted 1:10” value in data set [1] (diluted 1:10, deep and shallow lesions) was “much greater intensity in both deep and shallow lesions”. The “fluorescent intensity compared to IR820 (ICG)” value in data set [1] was “greater fluorescent intensity at each concentration and lesion depth compared to IR820 (ICG)”. In data set [2], the “emission wavelength (nm)” value was 760-800 nm and the “excitation/absorbance wavelength (nm)” value is listed as 700-770 nm.
Consider `COc1cccc2c1C(=O)c1c(O)c3c(c(O)c1C2=O)C[C@@](O)(C(=O)CO)C[C@@H]3O[C@H]1C[C@H](N)[C@H](O)[C@H](C)O1` [Doxorubicin], for which, in data set [2], the degree of detection entry was “Good”, the “emission wavelength (nm)” value was 630 nm, the “excitation/absorbance wavelength (nm)” value was determined as 480 nm and the “optical observation of early stage caries lesion with bound probe (photograph)” value was “Fluorescence of an early stage caries lesion was observed”.
As to `CC1(C)C(=CC=C2CCCC(C=CC3=[N+](CCCCS(=O)(=O)[O-])c4ccc5ccccc5c4C3(C)C)=C2Cl)N(CCCCS(=O)(=O)[O-])c2ccc3ccccc3c21.[Na+]` [IR820 (ICG)], in data set [2], the degree of detection entry was “Good”, the “emission wavelength (nm)” value turned out to be 845 nm and the “excitation/absorbance wavelength (nm)” value is given as 745 nm.
`O=P([O-])([O-])O.[Na+].[Na+]` [sodium phosphate dibasic (D), sodium phosphate dibasic]: the “% released of total OsteoSense” value was 0.01% in data set [3] (setting [4]); 2.97% in data set [3] (setting [5]); 1.81% in data set [3] (setting [6]); 4.67% in data set [3] (setting [7]); 14.21% in data set [3] (setting [8]); 14.64% in data set [3] (setting [9]). The “% released of total OsteoSense” value stood at 4.90% in data set [3] (setting [10]); 27.90% in data set [3] (setting [11]); 25.75% in data set [3] (setting [12]); 14.02% in data set [3] (setting [14]); 35.48% in data set [3] (setting [13]); 56.19% in data set [3] (setting [15]). The “% released of total reference value” in data set [3] (setting [4]) amounted to 0.02%; in data set [3] (setting [5]), 2.30%; in data set [3] (setting [6]), 2.08%; in data set [3] (setting [7]), 4.11%; in data set [3] (setting [8]), 13.12%; in data set [3] (setting [9]) it was 14.63%. Moreover, the “% released of total reference value” in data set [3] (setting [10]) is recorded as 5.28%; in data set [3] (setting [11]) it was 31.69%; in data set [3] (setting [12]) it was 21.10%; in data set [3] (setting [14]) it was 29.08%; in data set [3] (setting [13]) it was 27.01%; in data set [3] (setting [15]), 55.57%. In addition, the “Raw RFU value” in data set [3] (setting [4]) is on record as 0.00 RFU; in data set [3] (setting [5]) it was 1.11 RFU; in data set [3] (setting [6]), 0.68 RFU; in data set [3] (setting [7]), 1.75 RFU; in data set [3] (setting [8]) it was 5.33 RFU; in data set [3] (setting [9]), 5.49 RFU. Also, the “Raw RFU value” in data set [3] (setting [10]) is 1.84 RFU; in data set [3] (setting [11]), 10.46 RFU; in data set [3] (setting [12]), 9.66 RFU; in data set [3] (setting [14]), 5.26 RFU; in data set [3] (setting [13]), 13.30 RFU; in data set [3] (setting [15]) it was 21.07 RFU.
Regarding `C1=Cc2cc3ccc(cc4nc(cc5ccc(cc1n2)[nH]5)C=C4)[nH]3` [Porphyrin], in data set [2], the degree of detection result is “Good”, the “emission wavelength (nm)” value was determined as 700 nm, the “excitation/absorbance wavelength (nm)” value is 600 nm and the “optical observation of early stage caries lesion with bound probe (photograph)” value was “Fluorescence of an early stage caries lesion was observed”.
